Counter-ions that a name gives are not always drawn.
Legend:
rat = test: Anti-arrhythmic activity in the rat (aconitine perfusion); format: in vivo; details: 5 minutes before aconitine perfusion, compared with controls
Procedure: (2) Anti-arrhythmic activity in the rat
Male rats weighing 300-350 g, anesthesized intra-peritoneally with 1.20 g/kg of urethane, were tracheotomised and submitted to artifical respiration (40-50 insufflations of 3 ml/minute). Needles were implanted sub-cutaneously to record the electrocardiogram of the rats on the DII derivation signal and the products under test were administered intravenously. Five minutes after administering the product, the jugular vein of the rats was perfused with 10 μg/mn from 0.2 ml of an aconitine solution and the time of appearance of disturbances of the cardiac rhythm was noted. The results were expressed as percentage of extension of the time of appearance of the cardiac rhythm disturbances as compared with controls and as a function of the dose of the product tested.

[1] = system: Male rats of Sprague Dawley strain; test: Measurement of diuretic activity; format: in vivo; details: 5 mg/kg orally, urinary volume over period t0h-t5h
Procedure: (3) Measurement of diuretic activity Male rats of Sprague Dawley strain weighing 180-200 g were deprived of food for 17 hours before the test, while receiving water ad libitum. Groups of 8 animals were set up for each dose tested and the rats received the product under test or its vehicle orally. The urine volume was measured every hour for the 5 hours following the administration of the product. After this period, the urines were collected and the activity of the product was expressed as a percentage of variation calculated on the urinary volume corresponding to the period tOH --[…].

K opiated receptor = target: T1, K opiated receptor (Cavia porcellus, UniProt P41144); test: Liaison to the K opiated receptor in vitro (displacement of 3H ethylketocyclazocine); format: binding, guinea pigs; details: 50% inhibiting concentration (IC50), membranes from guinea pig brains, 3H ethylketocyclazocine 1 nM, 25° C. for 40 minutes
T1 construct: prepared from the brains of guinea pigs were used; from tissue; host or cells: guinea pig brain membranes
Procedure: (1) Liaison to the K opiated receptor in vitro:
Membrane residues preserved at -30° C. (possibly up to about 30 days) and prepared from the brains of guinea pigs were used.' The residues were suspended in Tris pH 7.7 buffer and fractions of 2 ml were distributed in hemolysis tubes, 9^3 H ethylketocyclazocine 1 nM and the product under study were added. The product was first tested at 5×10^-6 M (in triplicate). When the product tested displaced the radioactivity bound specifically to the receptor by more than 50%, it was again tested according to a range of 7 doses to determine the dose which inhibits the radioactivity bound specifically to the receptor by 50%. In this way, the 50% inhibiting concentration was determined.
The non-specific liaison was determined by adding the product known as U-50488 H (Lahti et al. 1982, Life Sci. 31, 2257) at 10^-5 M in triplicate. After incubating at 25° C. for 40 minutes, returning to the water-bath at 0° C. for 5 minutes, filtering under vacuum, and rinsing with Tris pH 7.7 buffer, the radioactivity was counted in the presence of scintillating Trition. […]

male mice = test: Analgesic activity (acetic acid stretching and twisting test); format: in vivo; details: administered orally 30 minutes before intraperitoneal acetic acid
Procedure: This test was based on the observation of Koster et al (Fed. Proc. 1959, 1B, 412) that the intraperitioneal injection of acetic acid causes repeated movements of stretching and twisting in rodents which can be considered as manifestations of a diffuse abdominal pain because they ae attenuated by analgesics. The acetic acid was injected at a […] male mice of average weight of […]. The product under study was administered orally 30 minutes before the injection of the acetic acid to groups of 10 animals, each trial including a control group which receives the vehicle. Five minutes after the injection of the irritant, the stretchings and twistings were counted for each animal for a period of 15 minutes. The analgesic effect of each dose of product studied was expressed as a percentage of protection in relation to the average number of movements observed in the controls receiving acetic acid alone. The DA50 or dose necessary to reduce the number of stretchings by 50% was calculated according to the method of least squares. The DA50 values obtained with the products of Example 1 and 3 were respectively 2.5 and 5 mg/kg.

T1 sequence (P41144 whole entry): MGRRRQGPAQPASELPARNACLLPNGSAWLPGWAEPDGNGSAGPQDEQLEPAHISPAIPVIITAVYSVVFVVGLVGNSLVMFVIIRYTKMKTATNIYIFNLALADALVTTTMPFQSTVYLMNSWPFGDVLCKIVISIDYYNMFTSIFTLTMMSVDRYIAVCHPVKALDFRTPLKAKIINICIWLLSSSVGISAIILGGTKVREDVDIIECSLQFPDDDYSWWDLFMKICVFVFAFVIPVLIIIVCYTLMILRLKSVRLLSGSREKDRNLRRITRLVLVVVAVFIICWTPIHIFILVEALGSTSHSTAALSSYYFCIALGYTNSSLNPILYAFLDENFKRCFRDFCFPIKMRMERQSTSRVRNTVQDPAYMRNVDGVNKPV

Compound	Percentage of extension of the time of appearance of the cardiac rhythm disturbances (rat; dose 1 mg/kg intravenously)	Percentage of extension of the time of appearance of the cardiac rhythm disturbances (rat; dose 2.5 mg/kg intravenously)	Percentage of variation of the urine volume [1]	IC50 (K opiated receptor) [nM]	ED50 (male mice; Mus musculus, po, 0.5 h, read-out: DA50 or dose necessary to reduce the number of stretchings by 50%) [mg/kg]	DA50 or dose necessary to reduce the number of stretchings by 50% (male mice; 30 min) [mg/kg]
O=C(Cc1ccc(Cl)c(Cl)c1)N1CCCC2CCC(N3CCCC3)C21 (mixture of isomers) [Example 1, [4aRS (4a-α, 7a-α)](±)1-[(3,4-dichlorophenyl)-acetyl]-octahydro-7-(1-pyrrolidinyl)-1H-1-pyrindine hydrochloride (isomer cis I)]	+26%	+35%	+85%	4	2.5	
O=C(Cc1ccc(Cl)c(Cl)c1)N1CCCC2CCC(N3CCCC3)C21 (stereo not drawn) [Example 3, [4aRS (4aα, 7aβ)] (35) 1-[(3.4-dichlorophenyl)acetyl]octahydro-7-(1-pyrrolidinyl)-1H-1-pyrindine hydrochloride (isomer trans I).]			+57%	9		5
O=C(Cc1ccc(Cl)c(Cl)c1)N1CCC[C@@H]2CCCC[C@H](N3CCCC3)[C@@H]21 (relative stereo) [Example 4, [4a-α, 9-β, 9a-α] (±) decahydro-1-([3,4-dichlorophenyl)-acetyl]-9-(1-pyrrolidinyl)-1H-cyclohepta[b]pyridine hydrochloride]	+37%	+65%				
